Laboratory results published in patent US20230047208A1, “RNA Splicing Modulation” (The General Hospital Corporation, priority 2020, published 2023).

Test system: wildtype (WT) human fibroblast cell lines
Test: Transcriptome-wide splicing by RNA sequencing (RNASeq), exon triplet PSI change;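 as to Effect: six WT fibroblast lines treated seven days versus DMSO vehicle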;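 as to T-PSI: T-PSI is average treated PSI after seven days of treatment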
Assay type: cell-based
Design: key to Effect: Exclusion; Inclusion; Unchanged
Source text: FIG. 2A provides a representation of an exon triplet. Exon U is upstream of Exon X, which is upstream of Exon D. R1, R2 and R3 represent RNA sequencing (RNASeq) reads spanning the regions between two adjacent exons. UI1, I1X, XI2 and I2D are four regions flanking the four splice sites of the exon-triplet. Each flanking region consists of 25 exonic base pairs and 75 intronic base pairs.
FIG. 2B provides a volcano plot showing the ψ (PSI: Percent Spliced-In) changes in splicing after treatment with Compound (I). Each dot represents one of the 161,097 expressed exon triplets in human fibroblasts. The x axis represents the ψ changes after treatment and the y axis represents the False Discovery Rate (FDR) (log 10 transformed). […] The horizontal dashed line indicates an FDR of 0.1. The dots on the right side of the right vertical dashed line and above the horizontal dashed line represent the exon-triplets with an increase for Exon X inclusion (Δψ≥0.1 and FDR<0.1) while the dots on left side of the left vertical dashed line and above the horizontal dashed line represent an increase for Exon X exclusion (Δψ≤−0.1 and FDR<0.1). Black dots in-between the two vertical dashed lines represent exon-triplets unchanged from the treatment.
In some aspects, analysis is performed on data derived from the assay to measure the magnitude of splicing to determine the amount of exons spliced into an mRNA transcript that is produced in the presence of Compound (I) relative to the amount in the absence of Compound (I) or presence of a negative control. In a preferred aspect, the method utilized is calculation of change in Percent Spliced In (ΔPSI). […] The ΔPSI value is derived from the formula: […]
The values for “a” and “b” represent the number of reads supporting the probability for potential inclusion or exclusion of an exon in an RNA transcript. The “a” value is derived from the number of reads within an exon triplet covering, in 5′ to 3′ order: the last few bases (>1 nucleotide) of an upstream exon operably linked to the first few bases (>1 nucleotide) of a middle exon. The “b” value is derived from the number of reads within an exon triplet covering, in 5′ to 3′ order: the last few bases (>1 nucleotide) of the middle exon operably linked to the first few bases (>1 nucleotide) of a downstream exon. The number of reads will indicate whether the splice junction of a middle exon has been identified as potentially having a CNN Motif(s) by the CNN Model described herein, wherein the inclusion or exclusion of the middle exon may be modulated in the presence of Compound (I) to produce one or more mature RNA isoforms from the gene transcript. The value for “c” represents the number of reads supporting the exclusion of the middle exon.
The effect on splicing modulation and corresponding splice differences toward exon inclusion or exclusion was determined by counting the RNASeq reads covering two splice junctions of exon triplets (three consecutive exons: Exon U, Exon X, Exon D) and the corresponding intervening introns, then comparing the change in Percent Spliced In (ΔPSI or Δψ) of the middle exon (Exon X) after treatment (as shown in FIG. 2A)^52,53. 934 exon triplets were identified showing differential middle exon inclusion or exclusion in response to Compound (I) treatment. Of these, 254 were exon inclusion events (Δψ≥0.1 and FDR<0.1) and 680 were exon exclusion events (Δψ≤−0.1 and FDR<0.1) (as shown in FIG. 2B). […] The splicing results were evaluated by RT-PCR in independent replicate experiments, confirming all the calculated Δψ values. […]

[1] = PCNXL2 Exon 233160892-233161145
[2] = PCNXL2 Exon 233353645-233353677
[3] = PDE4DIP Exon 144859759-144859998

## Clc1nc(NCc2ccncc2)c2cc[nH]c2n1 [Compound (I), 2-chloro-N-(pyridin-4-ylmethyl)-7H-pyrrolo[2,3-d]pyrimidin-4-amine]
PARP6 Exon 72543186-72543295
  ΔPSI: 0.148
PARP6 Exon 72543186-72543298
  Effect: Inc
  T-PSI: 0.870
  ΔPSI: 0.164
PARP11 Exon 3938076-3938196
  Effect: Exc
  T-PSI: 0.250
  ΔPSI: −0.245
PATL1 Exon 59423429-59423518
  Effect: Exc
  T-PSI: 0.710
  ΔPSI: −0.168
PCBP2 Exon 53861589-53861627
  Effect: Exc
  T-PSI: 0.431
  ΔPSI: −0.218
PCID2 Exon 113845186-113845289
  Effect: Exc
  T-PSI: 0.757
  ΔPSI: −0.217
PCM1 Exon 17838100-17838264
  Effect: Exc
  T-PSI: 0.444
  ΔPSI: −0.135
[1]
  Effect: Unc
  T-PSI: 0.891
  ΔPSI: 0.009
[2]
  Effect: Exc
  T-PSI: 0.899
  ΔPSI: −0.101
PCNXL4 Exon 60574304-60575045
  Effect: Exc
  T-PSI: 0.498
  ΔPSI: −0.151
PCYT2 Exon 79863258-79863323
  Effect: Exc
  T-PSI: 0.804
  ΔPSI: −0.150
[3]
  Effect: Inc
  T-PSI: 0.821
  ΔPSI: 0.140
PDGFC Exon 157782581-157782641
  Effect: Unc
  T-PSI: 0.141
  ΔPSI: 0.006
PDLIM2 Exon 22449064-22449181
  Effect: Exc
  T-PSI: 0.542
  ΔPSI: −0.322
PDP1 Exon 94930139-94930173
  Effect: Unc
  T-PSI: 0.184
  ΔPSI: −0.002
PDPR Exon 70148773-70148833
  Effect: Unc
  T-PSI: 0.268
  ΔPSI: −0.005
PDXDC2P Exon 70010714-70011906
  Effect: Unc
  T-PSI: 0.246
  ΔPSI: −0.004
PDZD11 Exon 69509372-69509443
  Effect: Inc
  T-PSI: 0.417
  ΔPSI: 0.257
PEAK1 Exon 77576225-77576372
  Effect: Exc
  T-PSI: 0.201
  ΔPSI: −0.170
PEAK1 Exon 77657505-77657567
  Effect: Unc
  T-PSI: 0.806
  ΔPSI: −0.001
PEX1 Exon 92138643-92138725
  Effect: Exc
  T-PSI: 0.444
  ΔPSI: −0.341
PEX5 Exon 7354837-7354947
  Effect: Exc
  T-PSI: 0.279
  ΔPSI: −0.163
PEX11A Exon 90229662-90229777
  Effect: Exc
  T-PSI: 0.316
  ΔPSI: −0.403
PFDN1 Exon 139680001-139680167
  T-PSI: 0.458
  ΔPSI: −0.326
PFDN5 Exon 53690214-53690335
  T-PSI: 0.175
  ΔPSI: 0.008
PFDN5 Exon 53690238-53690335
  T-PSI: 0.180
  ΔPSI: 0.007
RNASeq, human fibroblasts, out of 161,097 expressed triplets
  exon triplets showing differential middle exon inclusion or exclusion in response to treatment: 934
Δψ≤0.01
  unchanged-response set, exon triplets: 382
Δψ≤−0.1 and FDR<0.1
  exon exclusion events: 680
Δψ≥0.1 and FDR<0.1
  exon inclusion events: 254
